Our source for the IC50 values is ChEMBL document CHEMBL1129992, “Arylamide inhibitors of HIV-1 integrase” (J Med Chem, 1997).

Assay [1] has as its target T1, Human immunodeficiency virus type 1 integrase (Human immunodeficiency virus 1, UniProt Q7ZJM1). Kind of assay: Inhibition of HIV-1 integrase-mediated strand transfer.
Assay [2] deals with T1, Human immunodeficiency virus type 1 integrase. Kind of assay: Inhibition of HIV-1 integrase-mediated 3'-processing.

T1 sequence (Q7ZJM1 whole entry): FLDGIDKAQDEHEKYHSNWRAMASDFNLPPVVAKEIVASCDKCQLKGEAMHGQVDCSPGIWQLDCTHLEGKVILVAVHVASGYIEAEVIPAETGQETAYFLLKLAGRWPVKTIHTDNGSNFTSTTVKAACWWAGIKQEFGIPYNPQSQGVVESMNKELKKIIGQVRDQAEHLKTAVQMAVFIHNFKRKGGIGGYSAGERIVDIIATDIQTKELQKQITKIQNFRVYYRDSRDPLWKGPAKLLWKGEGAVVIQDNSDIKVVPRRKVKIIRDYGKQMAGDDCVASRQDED

For `COc1ccc2cc(C(=O)NCCCNC(=O)c3ccc4c(OC)c(OC)ccc4c3)ccc2c1OC`, the IC50 in assay [1] and in assay [2] was over 200 µM in each case. In the case of `COC(=O)c1ccc2c(O)c(O)ccc2c1`, the IC50 (in general, the concentration needed to halve the response being measured) was 52.7 µM in assay [1] and 58.4 µM in assay [2]. `O=C(CCc1cccc(O)c1)NCCc1cccc(O)c1`: in assay [2], the IC50 is over 350 µM. In the case of `O=C(O)c1ccc2cc(O)c(O)cc2c1`, the IC50 in assay [1] is 4.7 µM; in assay [2], 5.4 µM. In assay [2], `O=C(CCc1cc(O)cc(O)c1)NCCc1ccc(O)c(O)c1` gave an IC50 of over 350 µM. Turning to `O=C(CCc1cc(O)cc(O)c1)NCCCNC(=O)CCc1cc(O)cc(O)c1`, the IC50 in assay [1] and in assay [2] was over 200 µM throughout. For `O=C(CCc1cccc(O)c1)NCCCNC(=O)CCc1cccc(O)c1`, the IC50 in assay [1] and in assay [2] was over 200 µM in each case. As to `COc1ccc2cc(C(=O)NCCCNC(=O)c3ccc4cc(OC)ccc4c3)ccc2c1`, the IC50 in assay [1] and in assay [2] was over 200 µM in each case. With `COC(=O)c1ccc2cc(O)c(O)cc2c1`, the IC50 in assay [1] and in assay [2] was over 200 µM in each case. Consider `O=C(NCCCNC(=O)c1ccc2cc(O)c(O)cc2c1)c1ccc2cc(O)c(O)cc2c1`, for which the figures for the IC50 in assay [1] and in assay [2] were 0.81 µM and 0.98 µM, respectively. With `O=C(NCCCNC(=O)c1ccc2c(O)c(O)ccc2c1)c1ccc2c(O)c(O)ccc2c1`, the results for the IC50 in assay [1] and in assay [2] were 0.11 µM and 0.23 µM, respectively. On to `O=C(CCc1ccc(O)cc1)NCCc1cccc(O)c1`, for which the IC50 in assay [2] was over 350 µM. Same read-out and setting: as for `O=C(CCc1ccc(O)c(O)c1)NCCc1ccc(O)c(O)c1`, the figure is 33 µM; as for `O=C(CCc1cccc(O)c1)NCCc1ccc(O)cc1`, over 350 µM. As for `O=C(NCCCNC(=O)c1ccc2cc(O)ccc2c1)c1ccc2cc(O)ccc2c1`, the IC50 in assay [1] and in assay [2] was over 200 µM in each case. Take `COc1cc2ccc(C(=O)NCCCNC(=O)c3ccc4cc(OC)c(OC)cc4c3)cc2cc1OC`: the IC50 in assay [1] and in assay [2] was over 200 µM each time. Consider `COC(=O)c1ccc2cc(O)ccc2c1`, for which the IC50 in assay [1] and in assay [2] was over 200 µM each time. In the case of `O=C(CCc1ccc(O)cc1)NCCCNC(=O)CCc1ccc(O)cc1`, the IC50 in assay [1] and in assay [2] was over 200 µM each time. Regarding `O=C(O)c1ccc2c(O)c(O)ccc2c1`, the IC50 in assay [1] is 62.4 µM; in assay [2] it was 53.3 µM.

`O=C(CCc1ccc(O)cc1)NCCc1ccc(O)cc1` yielded an IC50 in assay [2] of over 350 µM. For `O=C(CCc1ccc(O)c(O)c1)NCCc1cc(O)cc(O)c1`, the IC50 in assay [2] was over 350 µM.

With `O=C(O)c1ccc2cc(O)ccc2c1`, the IC50 in assay [1] and in assay [2] was 172 µM in each case. In assay [2], `O=C(CCc1cc(O)cc(O)c1)NCCc1cc(O)cc(O)c1` came in with an IC50 of over 350 µM.
